According to patent publication US8778974B2, “Trisubstituted 1,2,4 triazoles” (Janssen Pharmaceutica NV, priority 2008, dated 2014):

Experiments:
[1] = biological target: T1, hα7-wt nAChR-expressing GH4Cl cells (Homo sapiens, UniProt P36544); test: Patch-clamp current recording (whole-cell), potentiation of choline 1 mM response, PAM type; format: cell-based; design: key to Pam type: Type 0 compounds minimally enhance the effect size of the current elicited by 1 mM choline.; Type 1 compounds enhance the effect size of the current elicited by 1 mM choline but minimally alter the kinetics of the receptor.; Type 2 compounds enhance the effect size of the current elicited by 1 mM choline while reducing the rate and/or the extent of desensitization.; Type 3 compounds enhance the effect size of the current elicited by 1 mM choline. When tested at higher concentrations up to 10 μM they completely inhibit desensitization, in particular a 1 mM choline application of 250 milliseconds.; Type 4 compounds allow for an initial desensitization of the receptor followed by a re-opening of the receptor during agonist application; conditions: for EC50: according to Ex. D.2, "<5" = no top plateau reached at maximal concentration, read-out: Potency (pEC50) (converted); for Pam type: patch-clamp current recording, 1 mM choline
T1 construct: expressed in transfected cells
In short: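 PAM type assigned qualitatively from current size and desensitization rate/extent when compound is applied simultaneously with 1 mM choline. Recordings: hα7-wt nAChR GH4Cl cells, whole-cell patch clamp, holding −70 mV, series resistance <15 MΩ with ≥60% compensation, pH 7.3 HEPES solutions, solution switching <100 ms.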

[2] = biological target: T2, hα7-wt nAChR-expressing cells (Homo sapiens, UniProt P36544); test: Ca2+ flux imaging (FDSS) (Protocol B), PAM activity with choline 100 μM; format: cell-based; conditions: according to Ex. D.1b; read-out: % Efficacy
T2 construct: expressed in transfected cells; host or cells: hα7-wt nAChR-expressing cells
Description: Ca^2+ Flux Imaging (FDSS) (Protocol B)
• a) Assay buffer • Hanks buffered saline solution (HBSS, Invitrogen, Belgium), supplemented with 10 mM HEPES (Invitrogen, Belgium), CaCl2 to a final concentration of 5 mM, 0.1% Bovine serum albumin (Sigma-Aldrich NV, Belgium). • b) Calcium-sensitive dye—Fluo-4AM • Fluo-4AM (Molecular Probes, USA) was dissolved in DMSO containing 10% Pluronic acid (Molecular Probes, USA) to give a stock solution which was diluted in assay buffer supplemented with 5 mM probenicid (Sigma, Al-drich NV, Belgium) to give a final concentration of 2 μM. • c) 384-well plates • Black 384 well plate black/clear plates, PDL pre-coated (Corning, Incorporated, USA) • d) Calcium flux measurement • A Functional drug screening system (FDSS, Hamamatsu) was used to measure intracellular free-calcium flux signals. Method
Monolayers of hα7-wt nAChR-expressing cells were grown in multi-well plates, in particular black-sided, transparent bottomed 384 well plates coated with poly-D-lysine for 24 hours prior to loading with a fluorescent calcium indicator, in a particular embodiment loading with fluo-4AM for up to 120 minutes.
PAM activity was detected in real time by applying the compounds to be tested to the loaded cells along with a α7 nicotinic receptor agonist during constant monitoring of cellular fluorescence in a FDSS. Compounds giving peak fluorescent responses greater than the response due to agonist alone, were considered to be α7 nAChR PAM's. In a particular embodiment, the α7 nicotinic receptor agonist was choline, a more particular embodiment choline applied at a sub-maximal concentration of 100 μM. In a further setting of the present invention the compounds to be tested were applied prior to the α7 nicotinic receptor agonist, in a particular embodiment up to 10 minutes prior to the agonist.
A control response to choline was calculated on each plate from the difference in peak in fluorescence in wells receiving either choline or assay buffer alone. Compounds of the present invention were tested at a concentration range from 0.01 μM to 30 μM. Compounds were considered to have an interesting activity when they potentiated the choline signal at least with 500% when tested at a concentration of 30 μM (the efficacy of 100 μM choline was defined as 100% in the absence of a PAM). The compounds also have a potentiating effect on the response to choline when measured by whole-cell patch clamp electrophysiology in GH4Cl cells stably over-expressing the human wild-type α7 receptor.

T2 sequence (P36544 23-502): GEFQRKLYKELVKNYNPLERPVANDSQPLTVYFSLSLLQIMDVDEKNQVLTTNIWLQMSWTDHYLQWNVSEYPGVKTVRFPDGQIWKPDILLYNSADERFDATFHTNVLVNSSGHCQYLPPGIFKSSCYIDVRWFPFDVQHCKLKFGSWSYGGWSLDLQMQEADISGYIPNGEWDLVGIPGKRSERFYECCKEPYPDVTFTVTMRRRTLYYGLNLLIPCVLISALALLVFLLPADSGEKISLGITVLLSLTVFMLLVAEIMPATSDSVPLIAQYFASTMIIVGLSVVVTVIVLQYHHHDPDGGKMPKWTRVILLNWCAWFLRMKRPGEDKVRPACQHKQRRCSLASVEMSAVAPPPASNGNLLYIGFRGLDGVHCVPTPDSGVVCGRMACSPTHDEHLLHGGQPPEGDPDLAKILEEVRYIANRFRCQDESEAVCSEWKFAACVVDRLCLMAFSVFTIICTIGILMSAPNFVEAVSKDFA
T1 sequence (P36544 23-502): as above

SMILES	melting point [°C]	EC50 [1] [µM]	Emax [2] [%]	Pam type [1]
C/C=C/c1nc(Nc2ccc(F)c(C(F)(F)F)c2)nn1-c1ccnc(C)c1 [E11, N-[4-Fluoro-3-(trifluoromethyl)phenyl]-1-(2-methyl-4-pyridinyl)-5-[(1E)-1-propenyl]-1H-1,2,4-triazol-3-amine]	226.3	0.138	341	–
CC[C@@H](O)Cc1nc(Nc2cc(OC)cc(C(F)(F)F)c2)nn1-c1cc(C)nc(C)c1 [E128]	138.8	0.126	994	4
CCNC(=O)Cc1nc(Nc2cc(F)cc(Cl)c2)nn1-c1cc(C)nc(C)c1 [E246]	290.2	0.275	494	–
CNC(=O)Cc1nc(Nc2cc(F)cc(F)c2)nn1-c1cc(C)nc(C)c1 [E232]	282.1	0.871	289	–
CNC(=O)Cc1nc(Nc2ccc(F)c(C(F)(F)F)c2)nn1-c1cc(C)nc(C)c1 [E223]	264.2	0.316	603	–
Cc1cc(-n2nc(Nc3cc(F)cc(C(F)(F)F)c3)nc2CC(=O)NC2CCC2)cc(C)n1 [E254]	291.8	0.0759	662	–
CCNC(=O)Cc1nc(Nc2ccc(F)c(C(F)(F)F)c2)nn1-c1cc(C)nc(C)c1 [E224]	256.2	0.204	600	1
CNC(=O)Cc1nc(Nc2cc(OC)cc(C(F)(F)F)c2)nn1-c1cc(C)nc(C)c1 [E243]	284.6	0.204	802	–
CCNC(=O)Cc1nc(Nc2cc(F)cc(C(F)(F)F)c2)nn1-c1cc(C)nc(C)c1 [E252]	284.5	0.195	930	–
Cc1cc(-n2nc(Nc3ccc(F)c(C(F)(F)F)c3)nc2CC(=O)NC2CC2)cc(C)n1 [E226]	–	0.12	711	1
CNC(=O)CCc1nc(Nc2ccc(F)c(F)c2)nn1-c1ccc(OC(F)(F)F)cc1 [E47]	–	1.51	698	–
CNC(=O)CCc1nc(Nc2ccc(F)c(F)c2)nn1-c1cccc(Cl)c1 [E39]	–	2.57	674	–
Cc1nccc(-n2nc(Nc3cccc(Cl)c3F)nc2CC(=O)NCC2CC2)c1C [E193]	–	~3.02	327	–
Cc1cc(-n2nc(Nc3cccc(Cl)c3F)nc2CC(=O)NC2CCC2)c(C)cn1 [E159]	–	1.74	592	1
CNC(=O)CCc1nc(Nc2ccc(F)c(F)c2)nn1-c1ccccc1Cl [E38]	–	3.09	253	–
CC[C@H](O)Cc1nc(Nc2cc(OC)cc(C(F)(F)F)c2)nn1-c1ccnc(C)c1C [E220]	–	2.04	646	–
CCc1cc(-n2nc(Nc3cc(OC)cc(C(F)(F)F)c3)nc2C[C@H](C)O)ccn1 [E133]	156.2	0.363	–	4
CC[C@@H](O)Cc1nc(Nc2ccc(F)c(F)c2)nn1-c1ccnc(C)c1 [E134]	175.8	1.05	–	2
COc1ccc(-n2nc(Nc3ccc(F)c(F)c3)nc2C[C@H](C)O)cc1 [E21]	181.4	1.78	–	1
Cc1cc(-n2nc(Nc3cc(F)c(F)cc3F)nc2C[C@H](C)O)cc(C)n1 [E194]	177.7	5.01	–	–
C[C@H](O)Cc1nc(Nc2ccc(F)c(F)c2)nn1-c1cccc(F)c1 [E17]	177.1	3.55	–	–

SMILES	melting point [°C]	EC50 [1] [µM]	Emax [2] [%]	Pam type [1]
COCCCc1nc(Nc2ccc(F)c(C(F)(F)F)c2)nn1-c1ccnc(C)c1 [E15]	141.4	0.11	–	0
CC[C@H](O)Cc1nc(Nc2ccc(F)c(F)c2)nn1-c1ccc(OC)cc1 [E29]	117.6	1.15	–	1
COc1ccc(-n2nc(Nc3ccc(F)c(C(F)(F)F)c3)nc2C[C@H](C)O)cc1 [E22]	188.7	0.851	–	0
C[C@H](O)Cc1nc(Nc2ccc(F)c(C(F)(F)F)c2)nn1-c1ccc(F)cc1 [E20]	170.4	4.47	–	–
Cc1cc(-n2nc(Nc3ccc(F)c(C(F)(F)F)c3)nc2C(C)CO)ccn1 (stereo not shown) [E31]	181.9	2.24	–	2
Cc1cc(-n2nc(Nc3cccc(Cl)c3F)nc2CC(=O)NCC2CC2)c(C)cn1 [E158]	–	1.38	328	1
CC[C@H](O)Cc1nc(Nc2ccc(F)c(F)c2)nn1-c1cccnc1 [E145]	144.2	2.45	–	–
CCNC(=O)Cc1nc(Nc2ccc(F)c(F)c2)nn1-c1cc(C)nc(C)c1 [E167, 3-[(3,4-difluorophenyl)amino]-1-(2,6-dimethyl-4-pyridinyl)-N-ethyl-1H-1,2,4-triazole-5-acetamide]	296.8	0.617	–	2
C[C@H](O)Cc1nc(Nc2ccc(F)c(C(F)(F)F)c2)nn1-c1ccncc1Cl [E25]	150.3	4.79	–	2
Cc1cc(-n2nc(Nc3cccc(Cl)c3F)nc2CCC(=O)N(C)C)cc(C)n1 [E265]	–	0.0372	616	–
CCNC(=O)Cc1nc(Nc2cccc(OC(F)(F)F)c2)nn1-c1cc(C)nc(C)c1 [E181]	277.5	0.513	–	2
Cc1ncccc1-n1nc(Nc2ccc3c(c2)OC(F)(F)O3)nc1CCC(=O)N(C)C [E116]	151.7	2.95	–	–
CCNC(=O)C(C)c1nc(Nc2ccc3c(c2)OC(F)(F)O3)nn1-c1cc(C)nc(C)c1 (stereo not shown) [E275]	244	1.05	–	2
Cc1cncc(-n2nc(Nc3ccc4c(c3)OC(F)(F)O4)nc2CCC(=O)N(C)C)c1 [E119]	141.1	0.107	–	4
Cc1cc(-n2nc(Nc3cccc(Cl)c3)nc2C[C@H](C)O)ccn1 [E23]	185	2.19	–	–
Cc1cc(-n2nc(Nc3ccc4c(c3)OC(F)(F)O4)nc2CC(=O)NCC2CC2)c(C)cn1 [E161]	227.2	1.32	–	2
CCc1cc(-n2nc(Nc3ccc(F)c(F)c3)nc2C[C@@H](O)CC)ccn1 [E138]	169.4	0.295	–	2
COc1ccc(-n2nc(Nc3cccc(OC(F)(F)F)c3)nc2CCC(=O)N(C)C)cc1 [E183]	–	0.0269	718	1
CCNC(=O)Cc1nc(Nc2cccc(C(F)(F)F)c2)nn1-c1cc(C)nc(C)c1 [E175]	283.6	0.55	–	4
Cc1cc(-n2nc(Nc3ccc(F)c(F)c3)nc2CC(=O)NCC2CC2)cc(C)n1 [E185]	278.7	0.468	–	2
COc1ncccc1-n1nc(Nc2cccc(OC(F)(F)F)c2)nc1CCC(=O)N(C)C [E4, 1-(2-Methoxy-3-pyridinyl)-N,N-dimethyl-3-[[3-(trifluoromethoxy)phenyl]amino]-1H-1,2,4-triazole-5-propanamide]	166.7	3.8	–	–
